The record followed here is US20240002470A1, “Method for separation and/or detection and/or in vitro quantification of infectious compounds in biological material” (priority 2020, published 2024).

The subject of assay [1] is ISAV virus (Infectious salmon anemia virus). Put plainly: Capture of ISAV virus on magnetic microbeads coated with pepβ2GPI, RT-PCR quantification. The following applies: for ISAV copies: virus captured on coated beads from culture supernatant. The format is binding. From the text:
The virus used is the ISAV virus (Infectious salmon anemia virus), responsible for anemia in salmon, originating from a culture supernatant.
The microbeads, intended to fix the virus, which are used are magnetic microbeads sold by the company MERCK under the name “Estapor® super-paramagnetic microspheres” which have a diameter between […].
(§1) The pepβ2GPI were grafted onto the microbeads according to the supplier's recommendations. In summary, the microbeads are suspended in phosphate buffer at a pH of 6.0. The beads are then activated, for 15 minutes, in the presence of 1-ethyl-3-(3-Dimethylaminopropyl) carbodiimide and N-hydroxysuccinimide. After washing with HCl, 2 mM, the beads are suspended in a phosphate buffer at a pH of 7.5, containing the pepβ2GPI. The concentration of pepβ2GPI in this coupling buffer is 20 mg/L; the microbeads are incubated in the buffer with gentle and constant shaking at a temperature of 25° C. for 3 hours. The microbeads are then centrifuged at 1,500 rpm and the supernatant is removed; the centrifugation pellet is suspended in the same buffer as that used for the coupling of pepβ2GPI, which forms the suspension of microbeads coated with pepβ2GPI which we want to test.
(§2) One hundred microliters of viral culture supernatant to be studied are placed in an Eppendorf tube with 900 microliters of Tris buffer at a pH of 7.5 and 10 microliters of microbeads. The tubes are shaken horizontally to mix the microbeads well, and each tube is incubated at 37° C. or at room temperature (RT=22° C.) for 30 minutes. In each tube, the microbeads are then separated from the liquid phase by means of a magnet, placed externally against the wall of the tube, and the viral RNA is extracted. The beads are brought into contact with a viral lysis buffer, included in an RNA extraction kit: QIAamp RNA viral kit, sold by QIAGEN and the viral RNA is isolated according to the seller's recommendations.
The RNA is then transcribed into complementary DNA, in the presence of reverse transcriptase, according to the following protocol:
Finally, the complementary DNA (cDNA) is amplified by chain reaction using a polymerase and quantified according to the following protocol: […]

For assay [2], the system named is IPN virus (Infectious pancreatic necrosis virus). The assay can be described thus: Capture of IPN virus on magnetic microbeads coated with pepβ2GPI, RT-PCR quantification. The assay is classed as binding. The following applies: for IPN Copies: virus captured on coated beads from culture supernatant. How it is done: as §1, §2
The virus used is the IPN virus (Infectious pancreatic necrosis virus), responsible for necrosis of the pancreas in salmon, originating from a culture supernatant. The same protocol as described in example 1 was carried out.

Assay [3] deals with HCV virus (hepatitis C virus). The assay can be described thus: Capture of HCV virus from patient plasma on magnetic microbeads coated with pepβ2GPI, RT-PCR quantification. The format is binding. The following applies: for HCV/run copies: per run, virus captured on coated beads from plasma of patients. On the procedure:
as §1, §2
The virus used is the HCV virus (hepatitis C virus), present in the plasma of patients. The same protocol as described in example 1 was carried out.

The subject of a further assay is E. coli B6054. The assay can be described thus: Capture of E. coli B6054 on magnetic microbeads, culture on TS agar and counting. The assay is classed as binding, Escherichia coli. The following applies: E. coli B6054 colonies from captured beads.
Another assay has as its system E. coli ATCC 8739. Put plainly: Capture of E. coli ATCC 8739 on magnetic microbeads, culture and counting. The assay is classed as binding, Escherichia coli. The following applies: E. coli ATCC 8739 colonies from captured beads. On the procedure: One ml of the culture of bacteria to be studied is placed in a hemolysis tube. 100 μl of buffer are added, the trade name of which is TTGB, then 20 μl of microbeads. The tube is stirred horizontally, to mix the microbeads well, and incubated at 37° C. or at room temperature (TA=22° C.) for half an hour. At the end of the incubation, the microbeads are separated from the liquid phase by means of a magnet, placed externally against the wall of the tube. The microbeads are then washed twice with LB medium and then resuspended in 1 ml of BTS culture medium (Tripticase-Soy broth) having the following formulation: […]
This culture medium is brought to a boil and then autoclaved, to make it sterile, before use. 20 μl of the microbead suspension are taken and spread in a Petri dish containing TS agar (Trypticase-Soya agar) having the following formulation: […]
The Petri dishes are incubated at +37° C. for 24 hours. The bacteria that have grown on the agar are then counted.
The used bacteria were obtained from a collection strain of Escherichia coli (E. coli), ATCC 8739. The same experiment as that described in the previous example was carried out.

In another assay the test system is SCN. The assay can be described thus: Capture from blood culture on magnetic microbeads, culture on TS agar: SCN. The format is binding. On the procedure:
The beads, on which β2GPI and peptides derived therefrom were grafted, were used for the capture of bacteria present in human blood and highlighted by blood culture.
These blood cultures are carried out by placing a venous blood sample […] in aerobic vials of BacT/ALERT®3D type. These flasks are then incubated in an automated system at 35° C. for at least 5 days. The bottles are equipped with a colorimetric detection system with a sensor located at the base of each bottle. Carbon dioxide produced by growing bacteria changes the color of the sensor; this change in color is detected by an automated system and indicates the presence of bacterial growth: these blood cultures are said to be positive. In the BacT/ALERT®3D vials there are particles of activated carbon, which inhibit antibiotics potentially present in the blood of patients, thereby improving the detection of microorganisms. To confirm the presence of bacteria in blood cultures which have been found positive, the hospital performs a culture on blood agar. […]
To test the interaction of microbeads coated with β2GPI and the peptides derived from them, with bacteria present in the blood, 1 ml of blood culture is taken from each sample and placed in a 15 ml tube. […] The bacteria that have grown on the agar were then counted.

Assay [4] relates to HSV virus (Herpes Simplex virus). Put plainly: Capture of HSV virus on magnetic microbeads coated with pepβ2GPI. The assay is classed as binding. On the procedure:
as §1, §2
The viruses tested are the HSV virus (Herpes Simplex virus) and the BVDV virus (Bovine viral Diarrhea Virus).
The same protocol as that described in example 1 was carried out.

For a further assay, the system named is S. aureus ATCC 6538. The assay can be described thus: Capture on magnetic microbeads coated with pepβ2GPI: C5 S. aureus ATCC 6538. The assay is classed as binding. How it is done: To test the interaction of microbeads coated with β2GPI and the peptides derived from them, with bacteria present in the blood, 1 ml of blood culture is taken from each sample and placed in a 15 ml tube. 20 μl of microbeads are added and each tube is incubated at 37° C. with horizontal shaking. The tubes are then placed in a magnetic field which retains the microbeads on the wall and the supernatant is removed. The microbeads are then washed twice with sterile PBS, of the same composition as previously indicated; the microbeads are then resuspended in 150 μl of BTS culture medium. Two methods for detecting bacteria captured by microbeads were used: culture on TS agar and PCR For the detection of the bacterial capture by culture, 50 μl of the suspension of microbeads thus obtained are taken and they are spread out in a Petri dish containing TS agar. Petri dishes are incubated in an oven at 37° C. for 24 hours. The bacteria that have grown on the agar were then counted.
The tested bacteria are: C3 E. coli ATCC 11105, C5 S. aureus ATCC 6538, H61 E. coli B6054, C1: E. coli ATCC 8739, H46: C. albicans 1 and H: 60 SCN
The same protocol and primers as those described in example 9 were carried out.

In the case of H-((SSLAFWK)2-K)2-K—NH2 [Peptide P11], the “% compared to β2GPI” value in assay [1] (ISAV copies captured relative to β2GPI beads) is recorded as “(140%)”; in assay [2] (IPN copies captured relative to β2GPI beads), “(175%)”; in assay [3] (HCV copies captured relative to β2GPI beads), “(86%)”; in the assay with E. coli B6054, 91%; in the assay on E. coli ATCC 8739, 99%; in the assay on SCN it was 101%. In addition, the ISAV copies in assay [1] was 78 350 copies. The “IPN Copies” value in assay [2] is recorded as 21 copies. Further, in assay [3], the HCV/run copies worked out at 97 copies. The “Capture of HSV virus” value in assay [4] turned out to be 123%. The “Capture of C5 S. aureus ATCC 6538” value with S. aureus ATCC 6538 is on record as 63%.

B1: β2GPI: plasma glycoprotein called β2-glycoprotein I, grafted on beads as the reference (protein, UniProt P02749 20-345, looked up)
Beta-2-glycoprotein 1: GRTCPKPDDLPFSTVVPLKTFYEPGEEITYSCKPGYVSRGGMRKFICPLTGLWPINTLKCTPRVCPFAGILENGAVRYTTFEYPNTISFSCNTGFYLNGADSAKCTEEGKWSPELPVCAPIICPPPSIPTFATLRVYKPSAGNNSLYRDTAVFECLPQHAMFGNDTITCTTHGNWTKLPECREVKCPFPSRPDNGFVNYPAKPTLYYKDKATFGCHDGYSLDGPEEIECTKLGNWSAMPSCKASCKVPVKKATVVYQGERVKIQEKFKNGMLHGDKVSFFCKNKEKKCSYTEDAQCIDGTIEVPKCFKEHSSLAFWKTDASDVKPC
modifications: grafted on beads
Regarding B1, in assay [1], the ISAV copies is reported as 55 800 copies. Besides, the “IPN Copies” value in assay [2] came out at 12 copies. For the same molecule, the HCV/run copies in assay [3] was found to be 113 copies. Also, the “% compared to β2GPI” value in the assay with E. coli B6054, in the assay with E. coli ATCC 8739 and in the assay on SCN was 100% throughout.
